Publication PMC7554884, “Small Molecule Inhibitors of DYRK1A Identified by Computational and Experimental Approaches” (International Journal of Molecular Sciences, 2020)
Read-outs that look alike come from different tables or passages of the source.

How the values were obtained:
DYRK1A = tested on: DYRK1A; set-up: method as in PMID 30170319; conditions: staurosporine; read-out: IC50 against DYRK1A; cited from earlier work
GSK3β = conditions: read-out: IC50 against GSK3β, cited from earlier work
DYRK1A(h) = molecular target: T1, DYRK1A(h) (Homo sapiens, UniProt Q13627); test: In vitro enzymatic assay (Eurofins, radiometric 33P-ATP); assay type: biochemical; conditions: for inhibition at 10 µM / % inhibition at 10 μM: DYRK1A; for IC50: read-out: IC50 values against DYRK1A
T1 construct: purchased Eurofins Scientific Inc. Korea (contract assay service)
Method: Enzymatic assays were performed by Eurofins Scientific Inc. Korea (Brussels, Belgium). […] The reaction was initiated by the addition of the MgATP mix. After incubation for 40 min at room temperature, the reaction was stopped by the addition of 3% phosphoric acid solution. Then, 10 μL of the reaction was then spotted onto a P30 filtermat and washed three times for 5 min in 75 mM phosphoric acid and once in methanol prior to drying and scintillation counting. […] All assays were performed in duplicate, and the average IC50 value was reported.

[1] = as summarised in the discussion

Compound | inhibition at 10 µM (DYRK1A(h)) | IC50 (DYRK1A(h); duplicate, average) | other results
O=C(O)c1cc2cc(Br)ccc2s1 [Compound 3, 5-bromobenzo[b]thiophene-2-carboxylic acid] | 82% | 3.25 µM | IC50 (DYRK1A(h); [1]): ~3.2 µM
N#Cc1ccc2[nH]c(O)c(-c3ccc(CN4CCOCC4)cn3)c2c1 [AZD1080, 2-hydroxy-3-(5-(morpholinomethyl)pyridin-2-yl)-1H-indole-5-carbonitrile, reference compound] | 71% | 2.91 µM | IC50 (GSK3β; AZD1080): 0.031 µM
N#Cc1cccc2sc(C(=O)O)cc12 [Compound 4, 4-cyanobenzo[b]thiophene-2-carboxylic acid] | 71% | 3.24 µM | IC50 (DYRK1A(h); [1]): ~3.2 µM
CC(C)c1nn(C)cc1-c1nc2c(N3CCN(Cc4cccnc4)CC3)c(Br)cnc2[nH]1 [Compound 1, 6-bromo-2-(3-isopropyl-1-methyl-1H-pyrazol-4-yl)-7-(4-(pyridin-3-ylmethyl)piperazin-1-yl)-3H-imidazo(4,5-b)pyridine] | 70% | 6.77 µM | 

Further lines, with some results ahead:

inhibition at 10 µM (DYRK1A(h)) | IC50 (DYRK1A(h); duplicate, average) | Compound | other results
76% | 5.83 µM | O=C(O)c1cccc(Nc2nc(-c3ccccc3)c3cc(Br)ccc3n2)c1 [Compound 6, 3-((6-bromo-4-phenylquinazolin-2-yl)amino)benzoic acid] | 
< 40% |  | COc1ccc(Nc2cc(C)nc(Nc3ccc(OC)cc3)n2)cc1 [Compound 5, N^2,N^4-bis(4-methoxyphenyl)-6-methylpyrimidine-2,4-diamine] | % inhibition at 10 μM (DYRK1A(h)): 27%
58% | 5.71 µM | COC(=O)c1sc2ncnc(Nc3cccc(OC)c3)c2c1C [Compound 2, methyl 4-((3-methoxyphenyl)amino)-5-methylthieno (2,3-d)pyrimidine-6-carboxylate] | 
< 40% |  | COc1ccc(Nc2ncc(F)c(N3CCOCC3)n2)cc1 [Compound 7, 5-fluoro-N-(4-methoxyphenyl)-4-morpholinopyrimidin-2-amine] | % inhibition at 10 μM (DYRK1A(h)): 33%
